Test results as given in US11136409B2, “Compositions and methods for identification, assessment, prevention, and treatment of AML using USP10 biomarkers and modulators” (Dana-Farber Cancer Institute, Inc., priority 2016, dated 2021).
Like-named read-outs stand apart in the source and are kept apart here.

Key:
HEL = assay: Anti-proliferation, 24 hr treatment (CellTiter-Glo); assay type: cell-based, human; conditions: read-out: Anti-proliferation IC50
Description: (§1) Nomo-1, P31-FUJ, and NB4 were obtained from Dr. Gary Gilliland. MV4, 11 cells were obtained from Dr. Anthony Letai. Hel, K562, THP, U937, TF-1 and K052 cells were purchased from the American Type Culture Collection (ATCC) (Manassas, Va., USA). […] Cell lines were submitted for cell line authentication and were authenticated within 6 months of manuscript preparation through cell line short tandem repeat (STR) profiling (DDC Medical, Fairfield, Ohio and Molecular Diagnostics Laboratory, Dana Farber Cancer Institute). […] PBMCs were generously provided by Dr. Steven Treon and Dr. Guang Yang.
(§2) The CellTiter-Glo® assay (Promega, Madison, Wis.) was used for proliferation studies and carried out according to manufacturer instructions. Cell viability is reported as percentage of control (untreated) cells, and error bars represent the standard error of the mean for each data point.

K562 = assay: as above; assay type: cell-based, human; conditions: read-out: Anti-proliferation IC50
Description: as §1, §2

MOLM13-luc+ = assay: as above; assay type: cell-based, human; conditions: read-out: Anti-proliferation IC50
Description: as §1, §2

MOLM14 = assay: as above; assay type: cell-based, human; conditions: read-out: Anti-proliferation IC50
Description: as §1, §2

MV4,11 = assay: as above; assay type: cell-based, human; conditions: read-out: Anti-proliferation IC50
Description: as §1, §2

NB4-luc+ = assay: as above; assay type: cell-based, human; conditions: read-out: Anti-proliferation IC50
Description: as §1, §2

NOMO-1 = assay: as above; assay type: cell-based, human; conditions: read-out: Anti-proliferation IC50
Description: as §1, §2

OCI-AML5 = assay: as above; assay type: cell-based, human; conditions: read-out: Anti-proliferation IC50
Description: as §1, §2

P31 = assay: as above; assay type: cell-based, human; conditions: read-out: Anti-proliferation IC50
Description: as §1, §2

TF-1 = assay: as above; assay type: cell-based, human; conditions: read-out: Anti-proliferation IC50
Description: as §1, §2

U937 = assay: as above; assay type: cell-based, human; conditions: read-out: Anti-proliferation IC50
Description: as §1, §2

PBMCs = assay: Treatment of PBMCs from healthy donors with USP10-targeting inhibitors; assay type: cell-based, human
Description: as §1, §2

[1] = system: AML primagraft (D835Y+, FLT3-ITD+) cells; assay: Treatment of mutant FLT3-expressing AML primagraft cells ex vivo; assay type: cell-based, human; conditions: read-out: IC50 (+/−S.D.) AML primagraft (D835Y+, FLT3-ITD+)
Experimental: All animal studies were performed according to protocols approved by the Dana-Farber Cancer Institute's Institutional Animal Care and Use Committee. […] Mice were sacrificed on day 21 of treatment. Bone marrow was flushed from mouse femurs, and spleens and livers were dissected and preserved first in formalin, followed 24 hours later by preservation in 70% ethanol. […] All AML primagraft samples used in the studies described herein were obtained through the Public Repository of Xenografts (proxe.org).
as §2

[2] = molecular target: T1, human USP10 (residues 376-798) (Homo sapiens, UniProt Q14694); assay: In vitro USP10 activity assay (Ubiquitin-AMC); assay type: biochemical; conditions: biochemical assay, FIG. 13B
T1 construct: A construct of human USP10 covering residues 376-798 in the pET28a vector; His-tag (cleaved yes); made in house; host or cells: E. coli BL21 (DE3)
T1 sequence (Q14694 376-798): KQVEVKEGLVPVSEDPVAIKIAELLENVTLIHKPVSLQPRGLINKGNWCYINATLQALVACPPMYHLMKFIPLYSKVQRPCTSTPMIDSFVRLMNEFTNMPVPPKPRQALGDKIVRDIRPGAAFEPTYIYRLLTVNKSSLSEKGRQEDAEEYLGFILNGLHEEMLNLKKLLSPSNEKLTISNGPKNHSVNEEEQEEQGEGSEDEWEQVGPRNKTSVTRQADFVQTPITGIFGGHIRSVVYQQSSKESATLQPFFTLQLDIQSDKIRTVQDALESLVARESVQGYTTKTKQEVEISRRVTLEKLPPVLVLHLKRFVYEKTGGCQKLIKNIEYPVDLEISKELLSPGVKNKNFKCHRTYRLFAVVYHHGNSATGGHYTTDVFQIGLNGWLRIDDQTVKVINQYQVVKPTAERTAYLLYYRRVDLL

[3] = 24 hr treatment, HEL (FLT3 wt or null)
[4] = 24 hr treatment, K562 (FLT3 wt or null)
[5] = 24 hr treatment, MOLM13-luc+ (FLT3-ITD)
[6] = 24 hr treatment, MOLM14 (FLT3-ITD)
[7] = 24 hr treatment, MV4,11 (FLT3-ITD)
[8] = 24 hr treatment, NB4-luc+ (FLT3 wt or null)
[9] = 24 hr treatment, NOMO-1 (FLT3 wt or null)
[10] = 24 hr treatment, OCI-AML5 (FLT3 wt or null)
[11] = 24 hr treatment, P31 (FLT3 wt or null)
[12] = 24 hr treatment, TF-1 (FLT3 null)
[13] = 24 hr treatment, U937 (FLT3 wt or null)
[14] = 24 hr assay, PBMC#1, read-out: IC50 (+/−S.D.) PBMC#1
[15] = 24 hr assay, PBMC#2, read-out: IC50 (+/−S.D.) PBMC#2
[16] = 72 hr assay, PBMC#1, read-out: IC50 (+/−S.D.) PBMC#1
[17] = 72 hr assay, PBMC#2, read-out: IC50 (+/−S.D.) PBMC#2

Compound | IC50 (HEL; [3]) [µM] | IC50 (K562; [4]) [µM] | IC50 (MOLM13-luc+; [5]) [µM] | IC50 (MOLM14; [6]) [µM] | IC50 (MV4,11; [7]) [µM] | IC50 (NB4-luc+; [8]) [µM] | IC50 (NOMO-1; [9]) [µM] | IC50 (OCI-AML5; [10]) [µM] | IC50 (P31; [11]) [µM] | IC50 (TF-1; [12]) [µM] | IC50 (U937; [13]) [µM] | IC50 (PBMCs; [14]) [µM] | IC50 (PBMCs; [15]) [µM] | IC50 (PBMCs; [16]) [µM] | IC50 (PBMCs; [17]) [µM] | IC50 ([1]; 24 hr assay) [µM] | IC50 ([1]; 72 hr assay) [µM] | USP10 inhibition compared with HBX19818 [2] | further results
CCCN(CCC)CCCNC(=O)c1ccc2c(Cl)c3c(nc2c1)CCCC3 [C598-0466] | 16.8 | 13.3 | 2.9 | 5.2 | 4.1 | 10.2 | 8.3 | 8.6 | 13.9 | 10.7 | 12.9 | 10.5 | 10.5 | 4.8 | 3.1 | 4.1 | 0.6 | more potent | –
CCN(CCCNC(=O)c1ccc2nc3c(c(Cl)c2c1)CCC3)Cc1ccccc1 [C673-0105] | 34.4 | 23.7 | 7.9 | 10.1 | 7.5 | 24.5 | 12.7 | 19.5 | 29 | 12.5 | 16.2 | 17.2 | 17.4 | 10 | 7.3 | 8.5 | 3.1 | comparably to HBX19818 | –
O=C(NCCCN1CCN(Cc2ccccc2)CC1)c1ccc2nc3c(c(Cl)c2c1)CCCC3 [C598-0563] | 19.6 | 15.9 | 8.8 | 9.9 | 9.7 | 13.6 | 10.7 | 17 | 10.6 | 10 | 13.7 | 22.9 | 44.4 | 15.6 | 7.9 | 12.2 | 2.8 | comparably to HBX19818 | –
CN(CCCNC(=O)c1ccc2nc3c(c(Cl)c2c1)CCCC3)Cc1ccccc1 [HBX19818, reference compound] | – | – | – | – | – | – | – | – | – | – | – | – | – | – | – | – | – | – | IC50 (HEL; Homo sapiens, HEL, 24 h): 25.7 µM; IC50 (K562; Homo sapiens, K562, 24 h): 18.5 µM; IC50 (MOLM13-luc+; Homo sapiens, 24 h): 4.4 µM; IC50 (MOLM14; Homo sapiens, MOLM-14, 24 h): 9.6 µM; IC50 (MV4,11; Homo sapiens, MV4-11, 24 h): 8.1 µM; IC50 (NB4-luc+; Homo sapiens, 24 h): 16.4 µM; IC50 (NOMO-1; Homo sapiens, NOMO-1, 24 h): 16.1 µM; IC50 (OCI-AML5; Homo sapiens, OCI-AML-5, 24 h): 17.9 µM; IC50 (P31; Homo sapiens, 24 h): 18.2 µM; IC50 (TF-1; Homo sapiens, TF-1, 24 h): 12.8 µM; IC50 (U937; Homo sapiens, U-937, 24 h): 20.7 µM; IC50 (PBMCs; Homo sapiens, PBMC, 24 h, read-out: IC50 (+/−S.D.) PBMC#1): 25.5 µM; IC50 (PBMCs; Homo sapiens, PBMC, 24 h, read-out: IC50 (+/−S.D.) PBMC#2): 24.1 µM; IC50 (PBMCs; Homo sapiens, PBMC, 72 h, read-out: IC50 (+/−S.D.) PBMC#1): 12.4 µM; IC50 (PBMCs; Homo sapiens, PBMC, 72 h, read-out: IC50 (+/−S.D.) PBMC#2): 7.3 µM; IC50 ([1]; Homo sapiens, 24 hr assay): 9.8 µM; IC50 ([1]; Homo sapiens, 72 hr assay): 1.9 µM
